Measured values taken from patent US4783528A, “Steroidal lariat ethers” (University of Miami (Department of Chemistry), priority 1987, dated 1988).

Assays:
[1] = Cation binding constant (log KS) for K+ in anhydrous methanol at 25° C.; conditions: decadic (log10) logarithm of equilibrium constant lariat ether + cation = complex
Description: (§1) As a result, only the macroring itself is expected to provide cation binding sites.
(§2) ^a Binding constants determined in anhydrous methanol solution at
(§3) 25° C. as described in the articles by Dishong et al., and Schultz
(§4) Notes. a. Binding constants determined in anhydrous methanol solution at 25° C. as described in the articles by Dishong et al., and Schultz et al. referred to above.
(§5) The binding constant, usually referred to as KS, is the equilibrium constant for the reaction: lariat ether + cation .revreaction. complex. The values in the table are expressed as decadic (log10) logarithms.

[2] = Cation binding constant (log KS) for Na+ in anhydrous methanol at 25° C.; conditions: decadic (log10) logarithm of equilibrium constant lariat ether + cation = complex
Description: as §1, §2, §3, §4, §5

Molecule	Cation Binding Constants (log KS), K^+ [1]	Cation Binding Constants (log KS), Na^+ [2]
CC(C)CCC[C@@H](C)[C@H]1CC[C@H]2[C@@H]3CC=C4C[C@@H](OC(=O)CN5CCOCCOCCOCCOCC5)CC[C@]4(C)[C@H]3CC[C@]12C [Compound 4, Cholesteryl (4-aza-15-crown-5)acetate]	4.03	4.10
CC(C)CCC[C@@H](C)[C@H]1CC[C@H]2[C@@H]3CC=C4C[C@@H](OC(=O)CN5CCOCCOCCOCCOCCOCC5)CC[C@]4(C)[C@H]3CC[C@]12C [Compound 5, Cholesteryl (4-aza-18-crown-6) acetate]	5.75	4.56
CC(C)CCC[C@@H](C)[C@H]1CC[C@H]2[C@@H]3CC[C@H]4C[C@@H](OC(=O)CN5CCOCCOCCOCCOCC5)CC[C@]4(C)[C@H]3CC[C@]12C [Compound 6, Cholestanyl (4-aza-15-crown-5) acetate]	4.03	4.12
CC(C)CCC[C@@H](C)[C@H]1CC[C@H]2[C@@H]3CC=C4C[C@@H](OC(=O)N5CCOCCOCCOCCOCC5)CC[C@]4(C)[C@H]3CC[C@]12C [Compound 8, N-(Cholesteryloxycarbonyl)aza-15-crown-5]	< 1.5	< 1.5
CC(C)CCC[C@@H](C)[C@H]1CC[C@H]2[C@@H]3CC=C4C[C@@H](OC(=O)N5CCOCCOCCOCCOCCOCC5)CC[C@]4(C)[C@H]3CC[C@]12C [Compound 9, N-(Cholesteryloxycarbonyl)aza-18-crown-6]	1.78	2.07
Cholestanyl (4-aza-18-crown-6)acetate [Compound 7]	5.78	4.58
